This is an account of results in patent US11813244B2, “Agent for eliminating senescent cells” (NIIGATA UNIVERSITY, priority 2016, dated 2023).

Assay [1] relates to human umbilical cord vein derived vascular endothelial cells (HUVECs). The assay is described as follows: Cell viability of young and aged HUVECs (ApoTox-Glo Triplex Assay). Type of assay: cell-based. The conditions noted are these: 48 hours, 2DG 1 mM, 3HB 20 mM, AIC 200 μM; for selectivity of the effects for aged versus young cells: aged (15 passages or more) vs young (less than 10 passages) HUVECs, viability and apoptosis; for cell viability: young and aged HUVECs, relative to Con. As for the experimental part:
(§1) Specifically, human umbilical cord vein derived vascular endothelial cells (HUVECs, Lonza) were cultured in a prescribed culture medium (EBM-2/EGM-2, Lonza). Less than 10 passages were defined as young and 15 passages or more were defined as aged. For young or aged HUVEC, 2DG, 3HB, and AIC were added to the culture solutions at the concentrations of 1 mM, 20 mM, and 200 μM, respectively, and the cells were harvested after 48 hours. The collected cells were evaluated for viability by fluorescence/absorbance measurements using ApoTox-Glo™ Triplex Assay kit (Promega). Dead cells were stained using AnnexinV (Becton & Dickinson (BD)), PI (Sigma-Aldrich), and Hoechst 33258 (Invitrogen), and the percentage of apoptosis-induced cells was quantified by FACS analysis.

Assay [2] has the same test system. The assay is described as follows: Apoptosis induction in young and aged HUVECs (AnnexinV/PI/Hoechst 33258, FACS analysis). Type of assay: cell-based. The conditions noted are these: 48 hours, relative to Con, 2DG 1 mM, 3HB 20 mM, AIC 200 μM. As to the method: as §1
Assay [3] has as its system senescent cells in the visceral adipose tissues. The assay is described as follows: Senescence-associated acidic β-galactosidase staining of visceral adipose tissue of diet-induced obesity model mice. In kind it is in vivo, mice (C57BL/6NCr). The conditions noted are these: canagliflozin 0.03% w/w in diet, one week. As to the method: (§2) Four-week-old wild-type mice (C57BL/6NCr) were fed with high fat diets for 8 weeks to prepare diet-induced obesity model mice. Then, canagliflozin, an SGLT2 inhibitor, was administered orally to the prepared obesity model mice by mixing with the diet at the concentration of 0.03% w/w (hereinafter referred to as “high fat diet+SGLT2i group”).
For comparison, four-week-old wild-type mice (C57BL/6NCr) fed with normal diets for 8 weeks (hereinafter referred as “normal diet group”) and obesity model mice prepared in the same manner as described above with the exception of not administering canagliflozin (hereinafter referred to as “high fat diet group”) were prepared.
The visceral adipose tissues (epididymal adipose tissues) were collected from the mice of each group one week after starting administration of canagliflozin in Experimental Example 1.
(§3) Then, the senescent cells in the visceral adipose tissues collected from the mice of each group were detected according to the conventional method (Dimri, G. P. et al., Proc. Natl. Acad. Sci. U.S.A., 92(20), 9363-9367, 1995). Specifically, each of the visceral adipose tissues was stained with senescence-associated acidic β-galactosidase and the senescent cells were detected. The senescent cells were stained blue by this staining.

A further assay relates to p53 protein. The assay is described as follows: Western blotting of p53 protein in visceral adipose tissue of obesity model mice. Type of assay: in vivo, mice (C57BL/6NCr). The conditions noted are these: canagliflozin 0.03% w/w in diet, one week. As for the experimental part:
as §2
Specifically, expression level of p53 protein was measured by Western blotting using a portion of the visceral adipose tissues collected in Experimental Example 2. Type 1C12 (CST) was used as the anti-p53 antibody. Anti-β-actin antibody (type 13E5, CST) was used as the antibody to detect β-actin protein, which is the loading control.

Assay [4] deals with p21 (Cdkn1a) and p16 (Cdkn2a) mRNA. The assay is described as follows: Quantitative RT-PCR of senescence markers p21 (Cdkn1a) and p16 (Cdkn2a) in visceral adipose tissue of obesity model mice. Type of assay: in vivo, mice (C57BL/6NCr). The conditions noted are these: canagliflozin 0.03% w/w in diet, 3 days and 1 week, relative to Actb. As for the experimental part:
as §2
(§4) Specifically, RNA was extracted with RNA-Bee™ (Tel-Test) from a portion of the visceral adipose tissue (epididymal adipose tissue) collected from the mice of each group 3 days and 1 week after starting administration of canagliflozin. The collected RNA was quantified by Nanodrop (Thermo), and cDNA was then prepared from 1 μg of the RNA using QuantiTect Reverse Transcription Kit (Quiagen). This cDNA was used to quantify the relative expression of mRNAs of p21 and p16 using Actb as the housekeeping gene by quantitative RT-PCR method using Light Cycler 480 (Roche), and TaqMan Universal Probe Library and the Light Cycler Master (Roche). The primers for each RNA were designed using the Probe finder on the Roche website.

For the next assay, the system named is visceral adipose tissue. The assay is described as follows: Adipose inflammation and oxidative stress in adipose tissue of obesity model mice (HE, DHE, F4/80 staining, CCL2 and TNFα RT-PCR). Type of assay: in vivo, mice (C57BL/6NCr). The conditions noted are these: visceral fat. As for the experimental part:
as §2
Specifically, a portion of the visceral fat collected in Experimental Example 4 was immersed and fixed with 10% Mildform (Wako) for at least 24 hours. The sample was dehydrated and embedded in paraffin, and sliced into 5-μm thick. The slices were stuck on slides and subjected to hematoxylin-eosin (HE) staining, dihydroethidium (DHE) staining, or immunofluorescent staining with F4/80 antibody. The stained slices were imaged using Biorevo (Keyence Co.), or where necessary, using confocal microscopy. For the HE staining, the images were photographed at 400× magnification, and the mean number of the crown like structures per one 40× field of view was counted as well. For the DHE staining, the percentage (%) of a red color value equal to or greater than a certain value relative to a randomly photographed 400× image per one field of view was measured using ImageJ. For the Immunofluorescent staining with F4/80 antibody, percentage (%) of F4/80 positive cells per nucleus in one field of view was measured. In addition, mRNAs of CCL2 and TNFα were quantified by quantitative RT-PCR method according to the method described in Experimental Example 4.

The subject of assay [5] is p16 and p21 mRNA in heart, kidney, skeletal muscle (quadriceps), and brown adipose tissue. The assay is described as follows: Quantitative RT-PCR of p16 and p21 in organs other than visceral adipose tissue of obesity model mice. Type of assay: in vivo, mice (C57BL/6NCr). The conditions noted are these: SGLT2 inhibitor administration for 7 days. As for the experimental part:
as §2, §4
Specifically, mRNA expression levels of p16 and p21 in heart, kidney, skeletal muscle (quadriceps), and brown adipose tissue, which were collected from the same mice when the visceral adipose tissue was collected in Experimental Example 2, were quantified using the same methods described in Experimental Example 4.

Assay [6] concerns senescent cells in blood vessels. The assay is described as follows: Senescence-associated β-galactosidase staining of blood vessels of atherosclerotic model mice. The conditions noted are these: ApoE−/− mice on high fat diet 12 weeks, canagliflozin 0.03% w/w in diet, 2 weeks, vs HFD group. Type of assay: in vivo, ApoE-deficient (ApoE−/−) mice.
Source text: as §3
Four-week-old ApoE-deficient (ApoE^−/−) mice were fed with high fat diets for 12 weeks, followed by oral administration of canagliflozin, an SGLT2 inhibitor, mixed in the diet at the concentration of 0.03% w/w (hereinafter referred to as “HFD+SGLT2i group”). For comparison, the same mice as described above with the exception of not administering canagliflozin (hereinafter referred to as “HFD group”) were prepared. The blood vessels (from the aorta base to the descending aorta on the diaphragm) were collected from the mice of each group 2 weeks after starting administration of canagliflozin. Subsequently, the senescent cells in blood vessels collected from the mice of each group were detected according to the method described in Experimental Example 2. The stainability was measured at a part ranging from the ascending aorta to the branch of the arch left subclavian artery.

Assay [7] relates to Hutchinson-Gilford progeria model mice (Zmpste24-deficient mice). The assay is described as follows: General condition of Hutchinson-Gilford progeria model mice. In kind it is in vivo. The conditions noted are these: canagliflozin 0.03% w/w in diet, 3 to 4 weeks, KO+SGLT2i vs KO. The text has this: Canagliflozin, an SGLT2 inhibitor, mixed in a diet at the concentration of 0.03% w/w was orally administered to 13-week-old Hutchinson-Gilford progeria model mice (Zmpste24-deficient mice), and the general condition of the mice was observed.

Assay [8] is described as follows: Metabolome analysis of blood and various tissues of mice after short-term administration of the SGLT2 inhibitor. In kind it is in vivo. The source says:
It is known that SGLT2 inhibition accelerates fatty acid oxidation and suppresses glycolysis, and that acceleration of glycolysis is observed in senescent cells. Then, whether 3-hydroxybutyrate (hereinafter referred to as “3HB”), AICAR (hereinafter referred to as “AIC”), and 2-deoxyglucose (hereinafter referred to as “2DG”) that has an inhibitory effect on glycolysis have effects to induce apoptosis of senescent cells were examined.

Setting [9] is: SGLT2 inhibitor administration for 3 days and 7 days.
Setting [10] is: SGLT2 inhibitor administration for 7 days.

Entries after “also recorded” stand apart in the source; their conditions may differ.

In the case of `O=CC[C@@H](O)[C@H](O)[C@H](O)CO` [2DG, 2-deoxyglucose], in assay [1], the “selectivity of the effects for aged versus young cells” value was “in an aged cell-selective manner” and the cell viability entry was “decrease of the cell viability”. The “apoptosis induction (percentage of apoptotic cells)” value in assay [2] was “increase the apoptosis induction”.
The like results for `CC(O)CC(=O)O` (stereo not shown) [3HB, 3-hydroxybutyrate] were, in that order, “in an aged cell-selective manner”, “decrease of the cell viability” and “increase the apoptosis induction”.
On the same counts, the results for `NC(=O)c1ncn([C@@H]2O[C@H](CO)[C@@H](O)[C@H]2O)c1N` [AIC, 5-Aminoimidazole-4-carboxamide-1-β-D-ribofuranoside] are “not in an aged cell-selective manner; also recorded: more potent effects in the young cells”, “decreased cell viability” and “increased apoptosis induction”.
As for `Cc1ccc([C@@H]2O[C@H](CO)[C@@H](O)[C@H](O)[C@H]2O)cc1Cc1ccc(-c2ccc(F)cc2)s1` [canagliflozin, (1S)-1,5-Anhydro-1-C(-3{[5-(4-fluorophenyl)thiophen-2-yl]methyl}-4-methylphenyl)-D-glucitol], in [3] (high fat diet+SGLT2i group mice), the “inflammation at the visceral fat” value is listed as “alleviation of inflammation at the visceral fat was also observed”. Also, the “senescent cells in the visceral adipose tissue (senescence-associated acidic β-galactosidase staining)” value in assay [3] (obesity model mice, oral, vs high fat diet group) is given as “significantly decreased the senescent cells in the visceral adipose tissue”. The “expression level of p53 in the visceral adipose tissue (Western blotting)” value in the assay on p53 protein is reported as “significantly lowered”. In addition, in assay [4], the “p16 mRNA levels in visceral adipose tissue” value is recorded as “a similar trend was observed for p16” and the “p21 mRNA levels in visceral adipose tissue” value is recorded as “significantly suppressed the increase of p21 mRNA levels”. In addition, in the assay on visceral adipose tissue (setting [9]), the “mRNA expression of CCL2” value is “tended to decrease”, the “mRNA expression of TNFα” value is on record as “tended to decrease” and the “macrophage infiltration into adipose tissue (immunofluorescent staining with F4/80)” value is “macrophage infiltration into adipose tissue remained”. In addition, in the assay on visceral adipose tissue (setting [10]), the “infiltration of macrophages and CLS structures (HE staining, number of CLS)” value was “significantly decreased”; the “oxidative stress (DHE staining, DHE positive area)” value was “significantly suppressed”. In [5], the “mRNA levels of p16 in the brown adipose tissue” value was “tended to decrease”, the “mRNA levels of p16 in the kidney” value is “tended to decrease”, the “mRNA levels of p21 in the heart” value is listed as “tended to decrease” and the “mRNA levels of p21 in the kidney” value is “tended to decrease”. Further, the “mRNA levels of p21 in the skeletal muscle” value in assay [5] is “tended to decrease”. Besides, in assay [6], the “senescent cells in blood vessels (senescence-related β-galactosidase stainability)” value is listed as “decreased the senescent cells stained blue”. Besides, the “deterioration of hair consistency and alopecia” value in [7] is “reduced”. Further, in [8], the AICAR in blood entry was “significant increase of AICAR”; the “ketone body concentration in blood and each tissue” value was “increase of ketone body concentration in blood and each tissue”.
